Measurements published in PubChem BioAssay (NCI).
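Method: 48-hour compound exposure of cells in 96-well plates, five concentrations, linear interpolation of endpoints. Here, GI50 denotes the concentration required for 50% inhibition of growth. TGI is the concentration that stops growth completely.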

Tests used:
Assay in all cases: DTP human tumour cell line panel, 48 h
MALME-3M melanoma = tested on: MALME-3M melanoma
SN12C renal = tested on: SN12C renal
COLO 205 colon = tested on: COLO 205 colon
SNB-75 CNS = tested on: SNB-75 CNS
SF-268 CNS = tested on: SF-268 CNS
UACC-257 melanoma = tested on: UACC-257 melanoma
HCT-15 colon = tested on: HCT-15 colon
NCI-H460 lung = tested on: NCI-H460 lung
SNB-19 CNS = tested on: SNB-19 CNS
MOLT-4 leukemia = tested on: MOLT-4 leukemia

| SMILES | TGI (MALME-3M melanoma) [µM] | TGI (SN12C renal) [µM] | TGI (COLO 205 colon) [µM] | TGI (SNB-75 CNS) [µM] | TGI (SF-268 CNS) [µM] | TGI (UACC-257 melanoma) [µM] | TGI (HCT-15 colon) [µM] | TGI (NCI-H460 lung) [µM] | TGI (SNB-19 CNS) [µM] | TGI (MOLT-4 leukemia) [µM] | GI50 (MALME-3M melanoma) [µM] | GI50 (SN12C renal) [µM] | GI50 (COLO 205 colon) [µM] | GI50 (SNB-75 CNS) [µM] | GI50 (SF-268 CNS) [µM] | GI50 (UACC-257 melanoma) [µM] | GI50 (HCT-15 colon) [µM] | GI50 (NCI-H460 lung) [µM] | GI50 (SNB-19 CNS) [µM] | GI50 (MOLT-4 leukemia) [µM] |
| --- | --- | --- | --- | --- | --- | --- | --- | --- | --- | --- | --- | --- | --- | --- | --- | --- | --- | --- | --- | --- |
| C(=N\NC1=NCCCN1)/c1ccc2ccccc2c1 | 33.2 | 26.6 | 19.3 | 18.4 | 30.2 | 42.5 | 29.1 | 17.4 | 31.8 | 5.02 | – | – | – | – | – | – | – | – | – | – |
| CC12CC(=O)C3C(C(=O)C1)C32C (stereo not given) | > 100 | > 100 | > 100 | > 100 | > 100 | > 100 | > 100 | > 100 | > 100 | > 100 | – | – | – | – | – | – | – | – | – | – |
| CC1CC[C@@]2(OC1)OC1C[C@H]3[C@@H]4CC[C@H]5CC(OC6OC(CO)C(OC7OC(CO)C(O)C(O)C7OC7OC(CO)C(O)C(O)C7O)C(O)C6O)CCC5(C)[C@H]4CCC3(C)C1[C@@H]2C (stereo not given in full) | 12.5 | 7.42 | 1.77 | 4.81 | 8.77 | 11.6 | 20.3 | 11.6 | 10.3 | 3.54 | – | – | – | – | – | – | – | – | – | – |
| CN(C)CCCN1C(=S)N(CCCN(C)C)c2c3cc(O)ccc3nc3c([N+](=O)[O-])ccc1c23 | 22.2 | 36.1 | 15.9 | 16.9 | 7 | 21.2 | 12.6 | 6.7 | 13.9 | 8.81 | – | – | – | – | – | – | – | – | – | – |
| CS(=O)(=O)OCCn1c(=O)n(CCOS(C)(=O)=O)c(=O)n(CCOS(C)(=O)=O)c1=O | > 100 | > 100 | > 100 | > 100 | > 100 | > 100 | > 100 | > 100 | > 100 | > 100 | – | – | – | – | – | – | – | – | – | – |
| O=P(c1ccccc1)(c1ccccc1)N1O[C@@H](c2ccccc2)C=C[C@H]1c1ccccc1 | 29.2 | 17.5 | 31.2 | 26.5 | 26.2 | 26.3 | 26.3 | 20.1 | 30 | 27.5 | – | – | – | – | – | – | – | – | – | – |
| COc1cc2c(cc1-c1c(C)noc1C)cc(C)c(=O)n2Cc1ccccn1 | 7.45 | > 100 | 22.2 | 0.456 | > 100 | > 100 | > 100 | > 100 | > 100 | > 100 | 1.14 | 2.91 | 0.566 | 0.0306 | 4.22 | 2.18 | 0.694 | 6 | 1.86 | 3.13 |
| O=c1c2cc3c(cc2[nH]c2ncccc12)OCO3 | > 10 | > 10 | > 10 | > 10 | > 10 | > 10 | > 10 | > 10 | > 10 | > 10 | – | – | – | – | – | – | – | – | – | – |
| COc1cc(C2CC(C)(Nc3ccccc3)Oc3cc4c(cc32)OCO4)cc(OC)c1OC (stereo not given) | > 100 | > 100 | 5.27 | > 100 | > 100 | > 85.2 | > 100 | 25.6 | > 100 | > 31.6 | – | – | – | – | – | – | – | – | – | – |
| C/C(CC1C2CCCC1C2)=N\NC(N)=O (stereo not given) | > 100 | > 100 | > 100 | > 100 | > 100 | > 100 | > 100 | > 100 | > 100 | > 100 | – | – | – | – | – | – | – | – | – | – |
| CCCNC(=O)CCC(C)[C@H]1CCC2C3C(C[C@H](OC(C)=O)[C@@]21C)[C@@]1(C)CCC2(C[C@H]1C[C@H]3OC(C)=O)OOC1(CCC(C)CC1)OO2 (stereo not given in full) | 40.3 | > 100 | 29.9 | 53.5 | 50.8 | 90.9 | > 100 | 71.2 | > 100 | > 100 | – | – | – | – | – | – | – | – | – | – |
| CC(C(=O)n1nnc2ccccc21)N(c1ccccc1)c1ccccc1 (stereo not given) | > 100 | > 100 | > 100 | > 100 | > 100 | > 100 | > 100 | > 100 | > 100 | > 100 | – | – | – | – | – | – | – | – | – | – |
| CC(=O)OCC1OC(n2cc([N+](=O)[O-])c(=O)[nH]c2=O)C(OC(C)=O)C(OC(C)=O)C1OC(C)=O (stereo not given) | > 100 | > 100 | > 100 | > 100 | > 100 | > 100 | > 100 | > 100 | > 100 | > 100 | – | – | – | – | – | – | – | – | – | – |
| N#CC(C#N)=CNC(=S)c1ccncc1 | > 100 | > 100 | > 100 | > 100 | > 100 | > 100 | > 100 | > 100 | > 100 | > 100 | – | – | – | – | – | – | – | – | – | – |
| CSc1c(C#N)c(N)n2c1C(=O)N(c1ccccc1)C2=S | > 100 | > 100 | 78.3 | > 100 | > 100 | > 100 | > 100 | > 100 | > 100 | > 100 | – | – | – | – | – | – | – | – | – | – |
| O=C(/C=C/c1ccsc1)c1ccsc1 | 75.1 | 40.4 | 52.8 | > 100 | > 100 | 39.6 | 41.5 | 69.6 | 47.7 | 44.7 | – | – | – | – | – | – | – | – | – | – |
| C=CCNC(=S)/N=C/c1c(O)c2ccccc2oc1=O | 96 | > 100 | > 100 | > 100 | > 100 | > 100 | > 100 | > 100 | > 100 | > 100 | – | – | – | – | – | – | – | – | – | – |
| O=[N+]([O-])/C(C(Cl)=C(Cl)Cl)=C(\Nc1cccc2cccnc12)SCc1ccccc1 | 28.9 | 60.7 | 33.5 | 40.9 | 42.3 | 49.2 | 43.4 | 55.3 | 42 | 14.4 | – | – | – | – | – | – | – | – | – | – |
| Cc1c(C(=O)CSc2nc3ccccc3c(=O)n2-c2ccccc2)c(=O)n(-c2ccccc2)n1C | > 100 | > 100 | > 100 | > 100 | > 100 | > 100 | > 100 | > 100 | > 100 | > 100 | – | – | – | – | – | – | – | – | – | – |
| CO[C@]12CC(=O)C3(C(C[C@H]4CC5CC=C6C[C@@H](OC(C)=O)CC[C@]6(OC(C)=O)C5C[C@@]43C)C1)C1C[C@H]3[C@@H]4CC=C5C[C@@H](OC(C)=O)CC[C@]5(OC(C)=O)[C@H]4CC[C@]3(C)C12 (stereo not given in full) | 35 | 29.8 | 12.7 | 94.2 | > 100 | > 100 | > 100 | 47.8 | 63.6 | 63.3 | – | – | – | – | – | – | – | – | – | – |
| NNC(=O)c1ccc[n+](CCc2ccccc2)c1 | > 100 | > 100 | > 100 | > 100 | > 100 | > 100 | > 100 | > 100 | > 100 | > 100 | – | – | – | – | – | – | – | – | – | – |
| Brc1cccc(Nc2nc(-c3cccs3)nc3ccc(Br)cc23)c1 | 65.2 | 71.3 | > 100 | > 100 | > 100 | 74 | > 100 | > 100 | 98.7 | > 100 | – | – | – | – | – | – | – | – | – | – |
| Cc1nn(C(=O)Cc2ccccc2)c2c1C(c1ccc(O)cc1)SC(N)=N2 (stereo not given) | > 100 | > 100 | > 100 | > 100 | > 100 | > 100 | > 100 | > 100 | > 100 | > 100 | – | – | – | – | – | – | – | – | – | – |
| N=S(c1ccccc1)c1ccccc1[N+](=O)[O-] (stereo not given) | 30.1 | 29.2 | 34 | 95.1 | 42.1 | 32.2 | 30.4 | 51 | 35.2 | 64.3 | – | – | – | – | – | – | – | – | – | – |
| Cc1c(S(=O)(=O)/N=C(\N)Nc2ccc(Cl)cc2)sc2ccc(Cl)cc12 | 39.8 | 31.2 | 45.9 | 43.5 | 32 | 40.4 | 44.6 | 33.6 | 57.4 | 78.1 | – | – | – | – | – | – | – | – | – | – |
| O=C1c2cc3c(cc2CC1Br)CCC3 (stereo not given) | 2.82 | 3.22 | 3.85 | 7.44 | 28.5 | 5.1 | 4.82 | 56.2 | 27.6 | 4.56 | – | – | – | – | – | – | – | – | – | – |
| CN(C)C(=S)S | > 90.2 | > 100 | > 100 | > 100 | > 100 | > 100 | > 100 | > 100 | > 100 | > 100 | – | – | – | – | – | – | – | – | – | – |
| COc1cc(C2SCC(=O)N2c2ccc(NC(=O)c3ccc(N4C(=O)CSC4c4cc(OC)c(OC)c(OC)c4)cc3)cc2)cc(OC)c1OC (stereo not given) | > 100 | > 100 | > 100 | > 100 | > 100 | > 100 | > 100 | > 100 | > 100 | > 100 | – | – | – | – | – | – | – | – | – | – |
| Cc1ccccc1C(O)(c1nccn1C)c1nccn1C | > 100 | > 100 | > 100 | > 100 | > 100 | > 100 | > 100 | > 100 | > 100 | > 100 | – | – | – | – | – | – | – | – | – | – |
| C1=CC2=CC=CC3c4nc5ccc6ccccc6c5nc4C(=C1)C23 (stereo not given) | > 100 | > 100 | > 100 | > 100 | > 100 | > 100 | > 100 | > 100 | > 100 | > 100 | – | – | – | – | – | – | – | – | – | – |
